Assay results taken from patent US20170239239A1, “Method for Inducing a Sustained Immune Response” (Immune Therapeutics Inc., priority 2016, published 2017).

Experiments:
[1] = test system: advanced pancreatic cancer; conditions: historical controls; cited from earlier work
IBS patients = assay: Open-label study of PTI-901 in 42 IBS patients; format: in vivo, human
Experimental: Forty-two IBS patients participated in an open-label study. Participants received 0.5 mg PTI-901/day for 4 weeks and were evaluated during baseline, during treatment, and at 4-week follow-up. Patients recorded degree of abdominal pain, stool urgency, consistency, and frequency. Primary outcomes were number of pain-free days and overall symptom relief, evaluated by a global assessment score. Data were analyzed per protocol. Global assessment improved in 76% of 42 patients. During treatment, the mean weekly number of pain-free days increased from 0.5+/−1 to 1.25+/−2.14 (P=0.011).

In the case of `Nc1ccn([C@@H]2O[C@H](CO)[C@@H](O)C2(F)F)c(=O)n1` [gemcitabine], the Clinical benefit response [1] is given as 23.8%.

In the case of `O=c1[nH]cc(F)c(=O)[nH]1` [5-fluorouracil (5-FU), 5-fluorouracil], the Clinical benefit response [1] is listed as 4.8%.

In the case of `Cl.O=C1CC[C@@]2(O)[C@H]3Cc4ccc(O)c5c4[C@@]2(CCN3CC2CC2)[C@H]1O5` [PTI-901], the Global assessment improved (IBS patients; 0.5 mg/day for 4 weeks, of 42 patients) is reported as 76%, the “mean weekly number of pain-free days” value (IBS patients; during treatment, from 0.5+/−1, P=0.011) is reported as 1.25+/−2.14 and the adverse reactions (IBS patients; human, in vivo) is reported as “no significant adverse reactions”.
